Legend:
[1] = Boiling temperature at pressure P; settings: Liquid, Ebulliometric method (Recirculating still)
[2] = Liquid; for mass density: 298.15 K, 101.33 kPa, Vibrating tube method; for vapor or sublimation pressure: Ebulliometric method (Recirculating still)

CCOC(=O)C(C)O (racemic) [DL-ethyl lactate]
Settings | Boiling temperature at pressure P [°C] | vapor or sublimation pressure [kPa]
[1], 40 kPa | 123.76 | –
[1], 53.33 kPa | 132.34 | –
[1], 66.66 kPa | 139.29 | –
[1], 79.99 kPa | 145.19 | –
[1], 93.32 kPa | 150.32 | –
[1], 101.3 kPa | 153.0 | –
[2], 396.91 K | – | 40
[2], 405.49 K | – | 53.33
[2], 412.44 K | – | 66.66
[2], 418.34 K | – | 79.99
[2], 423.47 K | – | 93.32
[2], 426.1 K | – | 101.3

Settings | mass density [kg/m3]
[2] | 1028.08

CO [methanol]
Settings | Boiling temperature at pressure P [°C] | vapor or sublimation pressure [kPa]
[1], 40 kPa | 42.34 | –
[1], 53.33 kPa | 48.83 | –
[1], 66.66 kPa | 54.08 | –
[1], 79.99 kPa | 58.51 | –
[1], 93.32 kPa | 62.36 | –
[1], 101.3 kPa | 64.5 | –
[2], 315.49 K | – | 40
[2], 321.98 K | – | 53.33
[2], 327.23 K | – | 66.66
[2], 331.66 K | – | 79.99
[2], 335.51 K | – | 93.32
[2], 337.6 K | – | 101.3

Settings | mass density [kg/m3]
[2] | 786.56

COC(C)=O [methyl ethanoate]
Settings | Boiling temperature at pressure P [°C] | vapor or sublimation pressure [kPa]
[1], 40 kPa | 32.50 | –
[1], 53.33 kPa | 39.53 | –
[1], 66.66 kPa | 45.30 | –
[1], 79.99 kPa | 50.21 | –
[1], 93.32 kPa | 54.53 | –
[1], 101.3 kPa | 56.89 | –
[2], 305.65 K | – | 40
[2], 312.68 K | – | 53.33
[2], 318.45 K | – | 66.66
[2], 323.36 K | – | 79.99
[2], 327.68 K | – | 93.32
[2], 330.04 K | – | 101.3

Settings | mass density [kg/m3]
[2] | 927.1

From the NIST ThermoML archive (doi:10.1016/j.fluid.2015.12.029)
